#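 Briefly, cells in 96-well plates were exposed to five compound concentrations for 48 h, and endpoints were estimated by linear interpolation. GI50 = concentration required for 50% inhibition of growth. TGI: total growth inhibition.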
# Assays:
# Assay in all cases: NCI anticancer screen, dose series, 48 h
# [1] = tested on: MDA-MB-435
# [2] = tested on: MOLT-4 leukemia
# [3] = tested on: OVCAR-8 ovarian
# [4] = tested on: MDA-MB-231 breast
# [5] = tested on: CCRF-CEM leukemia
# [6] = tested on: U251 CNS
# [7] = tested on: EKVX NSCLC
# [8] = tested on: HL-60(TB) leukemia
# [9] = tested on: NCI-H23 lung
# [10] = tested on: SNB-19 CNS
# [11] = tested on: NCI-H226 lung
# [12] = tested on: SK-MEL-5 melanoma
# [13] = tested on: HS 578T breast
# [14] = tested on: HCT-116 colon
# [15] = tested on: IGROV1 ovarian
# [16] = tested on: UO-31 renal
# [17] = tested on: K-562 leukemia
# [18] = tested on: NCI/ADR-RES ovarian
# [19] = tested on: OVCAR-3 ovarian
# [20] = tested on: OVCAR-5 ovarian
# [21] = tested on: UACC-257 melanoma
# [22] = tested on: LOX IMVI melanoma
# [23] = tested on: SF-268 CNS
# [24] = tested on: A549 NSCLC
# [25] = tested on: COLO 205 colon
# [26] = tested on: NCI-H522 lung
# [27] = tested on: TK-10 renal
# [28] = tested on: MALME-3M melanoma
# [29] = tested on: SF-539 CNS
# [30] = tested on: KM12 colon
# [31] = tested on: UACC-62 melanoma
# [32] = tested on: SN12C renal
# [33] = tested on: CAKI-1 renal
# [34] = tested on: SK-OV-3 ovarian
# [35] = tested on: BT-549 breast
# [36] = tested on: MCF7 breast
# [37] = tested on: ACHN renal
# [38] = tested on: SNB-75 CNS
# [39] = tested on: 786-0 renal
# [40] = tested on: SW-620 colon
# [41] = tested on: HOP-62 NSCLC
# [42] = tested on: HCT-15 colon
# [43] = tested on: HCC-2998 colon
# [44] = tested on: PC-3 prostate
# [45] = tested on: SK-MEL-28 melanoma
# [46] = tested on: DU-145 prostate
# [47] = tested on: OVCAR-4 ovarian
# [48] = tested on: SR leukemia
# [49] = tested on: SF-295 CNS
# [50] = tested on: A498 renal
# [51] = tested on: T-47D breast
# [52] = tested on: M14 melanoma
# [53] = tested on: NCI-H460 lung
# [54] = tested on: HT29 colon
# [55] = tested on: HOP-92 NSCLC
# [56] = tested on: SK-MEL-2 melanoma
# [57] = tested on: RXF 393 renal
structure (smiles),measurement,setting,value
CC1(C)CC[C@]2(C(N)=O)CC[C@]3(C)C(=CC[C@@H]4[C@@]5(C)C/C(=C/c6cccnc6)C(=O)C(C)(C)[C@@H]5CC[C@]43C)[C@@H]2C1,GI50,[1],3.15 µM
same,TGI,[1],11.2 µM
same,GI50,[2],2.01 µM
same,TGI,[2],6.3 µM
same,GI50,[3],3.69 µM
same,TGI,[3],> 100 µM
same,GI50,[4],3.8 µM
same,TGI,[4],22.3 µM
same,GI50,[5],2.54 µM
same,TGI,[5],7.73 µM
same,GI50,[6],3.19 µM
same,TGI,[6],11.2 µM
same,GI50,[7],3.44 µM
same,TGI,[7],> 100 µM
same,GI50,[8],2.04 µM
same,TGI,[8],4.55 µM
same,GI50,[9],3.31 µM
same,TGI,[9],> 100 µM
same,GI50,[10],4.03 µM
same,TGI,[10],16.5 µM
same,GI50,[11],2.09 µM
same,TGI,[11],5.78 µM
same,GI50,[12],1.81 µM
same,TGI,[12],3.33 µM
same,GI50,[13],5.93 µM
same,TGI,[13],> 100 µM
same,GI50,[14],1.8 µM
same,TGI,[14],3.68 µM
same,GI50,[15],3.62 µM
same,TGI,[15],73 µM
same,GI50,[16],2.28 µM
same,TGI,[16],6.83 µM
same,GI50,[17],2.4 µM
same,TGI,[17],7.11 µM
same,GI50,[18],2.71 µM
same,TGI,[18],8.96 µM
same,GI50,[19],1.86 µM
same,TGI,[19],3.53 µM
same,GI50,[20],1.93 µM
same,TGI,[20],4.16 µM
same,GI50,[21],3.2 µM
same,TGI,[21],12.1 µM
same,GI50,[22],1.71 µM
same,TGI,[22],3.24 µM
same,GI50,[23],3.8 µM
same,TGI,[23],18 µM
same,GI50,[24],3.31 µM
same,TGI,[24],> 100 µM
same,GI50,[25],1.86 µM
same,TGI,[25],3.76 µM
same,GI50,[26],2.43 µM
same,TGI,[26],8.11 µM
same,GI50,[27],4.05 µM
same,TGI,[27],30.2 µM
same,GI50,[28],1.9 µM
same,TGI,[28],4.05 µM
same,GI50,[29],1.97 µM
same,TGI,[29],3.9 µM
same,GI50,[30],2.28 µM
same,TGI,[30],5.72 µM
same,GI50,[31],2.21 µM
same,TGI,[31],5.13 µM
same,GI50,[32],2.31 µM
same,TGI,[32],5.24 µM
same,GI50,[33],2.92 µM
same,TGI,[33],13 µM
same,GI50,[34],3.95 µM
same,TGI,[34],> 100 µM
same,GI50,[35],2.61 µM
same,TGI,[35],6.83 µM
same,GI50,[36],2.71 µM
same,TGI,[36],13.7 µM
same,GI50,[37],3.49 µM
same,TGI,[37],13.6 µM
same,GI50,[38],9.92 µM
same,TGI,[38],> 100 µM
same,GI50,[39],3.85 µM
same,TGI,[39],30.5 µM
same,GI50,[40],3 µM
same,TGI,[40],> 100 µM
same,GI50,[41],2.84 µM
same,TGI,[41],10.1 µM
same,GI50,[42],2.09 µM
same,TGI,[42],4.31 µM
same,GI50,[43],1.71 µM
same,TGI,[43],3.34 µM
same,GI50,[44],2.56 µM
same,TGI,[44],13.4 µM
same,GI50,[45],2.26 µM
same,TGI,[45],4.71 µM
same,GI50,[46],3.52 µM
same,TGI,[46],16.5 µM
same,GI50,[47],7.1 µM
same,TGI,[47],> 100 µM
same,GI50,[48],2.34 µM
same,TGI,[48],7.14 µM
same,GI50,[49],3.16 µM
same,TGI,[49],11.2 µM
same,GI50,[50],2.06 µM
same,TGI,[50],4.06 µM
same,GI50,[51],2.66 µM
same,TGI,[51],11.4 µM
same,GI50,[52],3.38 µM
same,TGI,[52],10.9 µM
same,GI50,[53],2.2 µM
same,TGI,[53],5.33 µM
same,GI50,[54],2.1 µM
same,TGI,[54],4.56 µM
same,GI50,[55],2.66 µM
same,TGI,[55],8.7 µM
same,GI50,[56],2.22 µM
same,TGI,[56],4.99 µM
same,GI50,[57],1.67 µM
same,TGI,[57],3.3 µM
